One test deals with Tie2 (Homo sapiens, UniProt Q02763). Nature of the test: Tie-2-Kinase HTRF-Assay without kinase preactivation (assay 2). To be noted: 10 μM ATP, pIC50 = -log IC50 in molar concentration. Also noted: fusion protein of GST and the intracellular domains of Tie-2; GST; made in house; host or cells: insect cells (Hi-5). In kind it is biochemical. The text has this: Tie2-inhibitory activity of compounds of the present invention was quantified employing two Tie2 HTRF assay as described in the following paragraphs.
Chain of Tie2 (Q02763 770-1124 limits assumed, species assumed): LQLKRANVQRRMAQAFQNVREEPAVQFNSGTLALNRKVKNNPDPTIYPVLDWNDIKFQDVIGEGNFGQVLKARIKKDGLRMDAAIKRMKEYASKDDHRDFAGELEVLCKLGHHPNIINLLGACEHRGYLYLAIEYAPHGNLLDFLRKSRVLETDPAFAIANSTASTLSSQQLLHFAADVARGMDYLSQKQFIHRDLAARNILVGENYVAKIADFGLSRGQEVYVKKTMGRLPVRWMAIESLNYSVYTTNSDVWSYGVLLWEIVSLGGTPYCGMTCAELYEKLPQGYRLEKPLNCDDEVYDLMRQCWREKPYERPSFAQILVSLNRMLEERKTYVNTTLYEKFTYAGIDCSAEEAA
A recombinant fusion protein of GST and the intracellular domains of Tie-2, expressed in insect cells (Hi-5) and purified by Glutathion-Sepharose affinity chromatography was used as kinase. Alternatively, commercially available GST-Tie2-fusion protein (Upstate Biotechnology, Dundee, Scotland) can be used As substrate for the kinase reaction the biotinylated peptide biotin-Ahx-EPKDDAYPLYSDFG (C-terminus in amid form) was used which can be purchased e.g. from the company Biosynthan GmbH (Berlin-Buch, Germany). Detection of phosphorylated product is achieved specifically by a trimeric detection complex consisting of the phosphorylated substrate, streptavidin-XLent (SA-XLent) which binds to biotin, and Europium Cryptate-labeled anti-phosphotyrosine antibody PT66 which binds to phosphorylated tyrosine.
Tie-2 (3.5 ng/measurement point) was incubated for 60 min at 22° C. in the presence of 10 μM adenosine-tri-phosphate (ATP) and 1 μM substrate peptide (biotin-Ahx-EPKDDAYPLYSDFG-NH2) with different concentrations of test compounds (0 μM and concentrations in the range 0.001-20 μM) in 5 μl assay buffer [50 mM Hepes/NaOH pH 7, 10 mM MgCl2, 0.5 mM MnCl2, 1.0 mM dithiothreitol, 0.01% NP40, protease inhibitor mixture (“Complete w/o EDTA” from Roche, 1 tablet per 2.5 ml), 1% (v/v) dimethylsulfoxide]. The reaction was stopped by the addition of 5 μl of an aqueous buffer (25 mM Hepes/NaOH pH 7.5, 0.28% (w/v) bovine serum albumin) containing EDTA (90 mM) and the HTRF (Homogeneous Time Resolved Fluorescence) detection reagents streptavidine-XLent (0.2 μM, from Cis Biointernational, Marcoule, France) and PT66-Eu-Chelate (0.3 ng/μl; a europium-chelate labelled anti-phospho-tyrosine antibody from Perkin Elmer).
(§1) The resulting mixture was incubated 1 h at 22° C. to allow the binding of the biotinylated phosphorylated peptide to the streptavidine-XLent and the PT66-Eu-Chelate. Subsequently the amount of phosphorylated substrate peptide was evaluated by measurement of the resonance energy transfer from the PT66-Eu-Chelate to the streptavidine-XLent. Therefore, the fluorescence emissions at 620 nm and 665 nm after excitation at 350 nm was measured in a HTRF reader, e.g. a Rubystar (BMG Labtechnologies, Offenburg, Germany) or a Viewlux (Perkin-Elmer). The ratio of the emissions at 665 nm and at […] was taken as the measure for the amount of phosphorylated substrate peptide. The data were normalised (enzyme reaction without inhibitor=0% inhibition, all other assay components but no enzyme=100% inhibition) and IC50 values were calculated by a 4 parameter fit using an inhouse software.

In a further test the target is T1, Aurora-C (Homo sapiens, UniProt Q9UQB9).
T1 construct: GST; made in house; host or cells: HEK293 (the text adds '(Sf9)', which contradicts this)
T1 sequence (Q9UQB9 1-309): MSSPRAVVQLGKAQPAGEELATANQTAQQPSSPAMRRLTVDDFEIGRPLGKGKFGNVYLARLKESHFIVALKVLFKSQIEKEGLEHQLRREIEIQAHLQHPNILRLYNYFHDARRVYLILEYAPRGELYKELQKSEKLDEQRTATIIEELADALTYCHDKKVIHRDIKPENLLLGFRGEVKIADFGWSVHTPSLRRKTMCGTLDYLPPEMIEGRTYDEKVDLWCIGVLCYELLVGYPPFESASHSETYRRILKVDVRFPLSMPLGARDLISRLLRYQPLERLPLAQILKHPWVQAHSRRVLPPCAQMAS
Nature of the test: Aurora C HTRF assay (assay 5). In kind it is biochemical. To be noted: IC50 assay 5/IC50 assay 2.
Excerpt: Assay 5: Aurora C HTRF Assay
Aurora-C inhibitory activity of compounds of the present invention was quantified employing the Aurora-C HTRF assay as described in the following paragraphs.
Recombinant fusion protein of GST and human Aurora-C was expressed in transiently transfected HEK293 cells (Sf9) and purified by Glutathion-Sepharose affinity chromatography. As substrate for the kinase reaction biotinylated peptide biotin-Ttds-FMRLRRLSTKYRT (C-terminus in amid form) was used which can be purchased e.g. form the company JERINI peptide technologies (Berlin, Germany). Aurora-C was incubated for 60 min at 22° C. in the presence of different concentrations of test compounds in 5 μl assay buffer [25 mM Hepes/NaOH pH 7.4, 0.5 mM MnCl2, 2.0 mM dithiothreitol, 0.1 mM sodium ortho-vanadate, 10 μM adenosine-tri-phosphate (ATP), […] substrate, 0.01% (v/v) TritonX-100 (Sigma), 0.05% (w/v) bovine serum albumin, 1% (v/v) dimethylsulfoxide]. The concentration of Aurora-C was adjusted depending of the activity of the enzyme lot and was chosen appropriate to have the assay in the linear range, typical concentrations were in the range of 0.3 nM. The reaction was stopped by the addition of 5 μl of a solution of HTRF detection reagents (0.2 μM streptavidine-XLent and 1.4 nM Anti-Phospho-(Ser/Thr) Akt substrate-Cryptate (Cis biointernational, France, product no. 61P02KAE), a labeled Phospho-(Ser/Thr) Akt substrate antibody [product #9611B, Cell Signalling Technology, Danvers, Mass., USA] labeled with Europium Cryptate, in an aqueous EDTA-solution (40 mM EDTA, 400 mM KF, 0.05% (w/v) bovine serum albumin in 25 mM HEPES/NaOH pH 7.0).
as §1, with “Anti-Phospho-(Ser/Thr) Akt substrate-Cryptate.” for “PT66-Eu-Chelate.”, “substrate” for “substrate peptide”, “Prot-A-EuK” for “PT66-Eu-Chelate”, “substrate.” for “substrate peptide.”
On the technique in general: In TR-FRET formats the signal depends on donor and acceptor labels being close together.

Consider two molecules from patent US20080039482A1, “SULFONAMIDO-MACROCYCLES AS TIE2 INHIBITORS AND SALTS THEREOF, PHARMACEUTICAL COMPOSITIONS COMPRISING SAME, METHODS OF PREPARING SAME AND USES OF SAME” (priority 2006, published 2008).

By IC50 is commonly meant the midpoint of a concentration-inhibition curve. Low values mean inhibition by little substance, high ones a need for much substance. Take `O=C(Nc1ccc(-c2cnc3nc2NCCCNS(=O)(=O)c2cccc(c2)N3)cc1)C1(c2cc(C(F)(F)F)ccc2F)CC1` [Example 12, 1-(2-Fluoro-5-trifluoromethyl-phenyl)-cyclopropane-carboxylic acid [4-(13,13-dioxo-13λ^6-thia-2,4,8,12,19-pentaaza-tricyclo[12.3.1.1^3,7]-nonadeca-1(18),3(19),4,6,14,16-hexaen-6-yl)-phenyl]-amide]: the IC50 at Tie2 is < 100 nM. The “Selectivity vs. Aurora C” value on Aurora-C is listed as >20 fold.
Turning to `CC(C)(C(=O)Nc1ccc(-c2cnc3nc2NCCCNS(=O)(=O)c2cccc(c2)N3)cc1)c1ccc(Cl)cc1` [Example 13, 2-(4-Chloro-phenyl)-N-[4-(13,13-dioxo-13λ^6-thia-2,4,8,12,19-pentaaza-tricyclo[12.3.1.1^3,7]-nonadeca-1(18),3(19),4,6,14,16-hexaen-6-yl)-phenyl]-isobutyramide], the half-maximal inhibitory concentration (IC50) at Tie2 was < 100 nM. Moreover, the “Selectivity vs. Aurora C” value on Aurora-C was >20 fold.
